One test relates to HaCat keratinocytes. The test can be described thus: In vitro inhibition of growth of skin keratinocyte (CCK-8). Type of test: cell-based. As to conditions: 24 hours; for concentration that completely inhibits the growth of the skin keratinocyte: HaCat cells, CCK-8. Here is the method:
HaCat keratinocytes (purchased from ATCC) in a logarithmic growth phase were inoculated in a 96-well plate, with 2×10^4 cells for each well. The compound of formula (II) and AKBA were added respectively in a concentration gradient. The total volume was […]. DMSO was added in the control group to a final concentration of 0.25%. […] culture medium was added into the blank control well. Each group had three parallel experiments. After cultured in a cell incubator for 24 hours, […] CCK-8 solution was added into each well. Then the plate was placed in the incubator for incubation at 37° C. and 5% CO2 for 4 hours. OD value was measured at 450 nm by a microplate reader. The inhibition rate was calculated by the following equation: Inhibition Rate=[1−(OD of the test group/OD of the control group)]×100%.

The test system of test [1] is mouse psoriasis model. The test can be described thus: Treatment of mice psoriasis induced by imiquimod with gel formulation. Type of test: in vivo, Balb/c mice. As to conditions: 0.5% (w/w) gel, day 8 to day 14, topical. Here is the method:
(§1) Thirty age- and sex-matched Balb/c mice, 10 in the control group using a blank gel, 10 in the treatment group using AKBA gel and 10 in the treatment group using CKBA gel, were coated on their backs by imiquimod (62.5 mg/day for each mouse) for 7 days to establish mouse psoriasis model. At day 8 to day 14, the blank gel (Control), AKBA gel (0.5% (w/w)) and CKBA gel (0.5% (w/w)) were administered to the mice for treatment, respectively. Imiquimod was administered every two days to the back of the mice to maintain the skin inflammation. At day 15 pictures were took for the skin lesions of the psoriasis mice. Then the mice were sacrificed by cervical vertebra luxation and the skin from the skin lesion was cut and fixed by 4% paraformaldehyde to prepare HE pathological sections.
as §1, with “(0.2%” for “(0.5%”

The target of a further test is T1, 5-LOX (Homo sapiens, UniProt P09917).
T1 sequence (P09917 1-674): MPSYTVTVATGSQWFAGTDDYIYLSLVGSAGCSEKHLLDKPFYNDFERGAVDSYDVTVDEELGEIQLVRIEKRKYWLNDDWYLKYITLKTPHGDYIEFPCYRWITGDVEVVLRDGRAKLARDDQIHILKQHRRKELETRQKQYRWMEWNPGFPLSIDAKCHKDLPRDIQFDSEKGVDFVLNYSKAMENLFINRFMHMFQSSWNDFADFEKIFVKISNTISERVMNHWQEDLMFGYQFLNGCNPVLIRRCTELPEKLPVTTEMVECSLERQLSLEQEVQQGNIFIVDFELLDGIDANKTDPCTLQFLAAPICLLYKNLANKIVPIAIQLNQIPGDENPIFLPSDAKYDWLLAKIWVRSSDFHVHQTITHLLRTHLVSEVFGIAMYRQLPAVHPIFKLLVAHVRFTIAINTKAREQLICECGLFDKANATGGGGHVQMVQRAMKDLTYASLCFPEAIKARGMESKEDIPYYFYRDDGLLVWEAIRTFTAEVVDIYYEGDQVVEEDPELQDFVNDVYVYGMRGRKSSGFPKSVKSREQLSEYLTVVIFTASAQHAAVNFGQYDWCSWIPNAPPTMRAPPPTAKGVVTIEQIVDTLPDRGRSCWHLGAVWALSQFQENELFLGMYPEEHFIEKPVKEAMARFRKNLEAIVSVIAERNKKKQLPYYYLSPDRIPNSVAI
The note with it: Sailer et al., British J Pharmacology, 1996; cited from earlier work.

Another test deals with TH1 cells. The test can be described thus: Inhibition of in vitro differentiation of TH1 cells from naive T cells (flow cytometry). Format: cell-based, C57BL/6J mice. The note with it: 2 μm, 4 days, IFN-γ staining. Here is the method: (§2) C57BL/6J mice of 6-8 week old were sacrificed by cervical vertebra luxation. The spleen was taken and ground. The cells were sieved to prepare a single-cell suspension. After dyeing on their surfaces by CD4-APC, CD25 PerCP-Cy 5.5 and CD62L-FITC, the cells were sorted by BD FACSAria III flow cytometry. The naïve T cells, i.e., CD4^+CD25^−CD62L^hi+ T cells, were used for induced differentiation of TH1, TH17 and Treg. A gradient of concentration of CKBA was added for incubation. Cells were collected after 4 days and then further cultured in incubator at 37° C. and 5% CO2 for 4-6 hours in 1640 complete culture medium supplemented with 750 ng/ml ionomycin and 50 ng/ml phorbol myristate acetate (PMA) and GolgiPlug. After suspension with PBS, the surface of the cell was stained by CD4-APC. After staining at 4° C. for 30 minutes, the cells were re-suspended once and then broke for 20 minutes at 4[…]. The cells were washed again by lotion and then stained by IFN-γ, IL-17A and FoxP3.
A general note: Flow cytometry measures light scatter and fluorescence of single cells or particles in a stream.

A further test concerns TH17 cells. The test can be described thus: Inhibition of in vitro differentiation of TH17 cells from naive T cells (flow cytometry). Type of test: cell-based, C57BL/6J mice. As to conditions: 2 μm, 4 days, IL-17A staining. Here is the method:
as §2

The next test has as its system Treg. The test can be described thus: In vitro differentiation of Treg from naive T cells (flow cytometry). Format: cell-based, C57BL/6J mice. As to conditions: 2 μm, 4 days, FoxP3 staining. Here is the method:
as §2

The test system of test [2] is mouse psoriasis model. The test can be described thus: Treatment of mice psoriasis induced by imiquimod with gel formulation. Format: in vivo, Balb/c mice. As to conditions: 0.2% (w/w) gel, day 8 to day 14, topical.

We go through two compounds from US9725482B2, “Pentacyclic triterpenoid compound with modified structure and preparation method and use thereof” (Suzhou Botany Biomedicals Co., Ltd, priority 2013, dated 2017).

As to `CC(=O)O[C@@H]1CC[C@@]2(C)C(CC[C@]3(C)C2C(=O)C=C2C4[C@@H](C)[C@H](C)CC[C@]4(C)CC[C@]23C)[C@@]1(C)C(=O)O` (stereo partly drawn) [AKBA, Acetyl-11-keto-β-boswellic acid, reference compound], the “concentration that completely inhibits the growth of the skin keratinocyte” value in the test on HaCat keratinocytes is 100 µM. In addition, in the test with mouse psoriasis model [1], the mice psoriasis phenotype result was “effectively relieve”, the “number of the inflammatory cells in dermis” value (“number” below) is on record as “significantly reduce” and the skin thickness result is on record as “significantly reduce”. Further, the “5-LOX inhibitory activity among boswellic acids” value on 5-LOX was “the most obvious 5-LOX inhibitory activity”.
In turn, `C[C@H]1[C@H](C)CC[C@]2(C)CC[C@]3(C)C(=CC(=O)[C@@H]4[C@@]5(C)CC[C@@H](OC(=O)C6CCCCC6)[C@](C)(C(=O)O)[C@@H]5CC[C@]43C)[C@H]12` [CKBA, 3-o-α-cyclohexanoyl-11-keto-β-boswellic acid] returned a concentration that completely inhibits the growth of the skin keratinocyte in the test on HaCat keratinocytes of 20 µM. Also, the “inhibiting division and proliferation of HaCat cells as compared to AKBA” value in the test with HaCat keratinocytes (concentration gradient) is “more effective”. Besides, the “inhibition of in vitro differentiation of TH1” value in the test with TH1 cells is given as “very effectively inhibit”. In addition, the “inhibition of in vitro differentiation of TH17” value with TH17 cells is given as “very effectively inhibit”. The “inhibition on differentiation of Treg” value in the test on Treg is “no inhibition”. Besides, in the test on mouse psoriasis model [1], the mice psoriasis phenotype result is recorded as “effectively relieve”, the “number” value was “significantly reduce”, the skin thickness result is reported as “significantly reduce” and the “treatment of mice psoriasis as compared to AKBA” value is on record as “more effectively treat”. Further, in the test with mouse psoriasis model [2], the mice psoriasis entry was “effectively cure”, the “number” value is “significantly reduce” and the skin thickness entry is “significantly reduce”.
